Key:
human 5HT transporter = target: T1, human 5HT transporter (Homo sapiens, UniProt P31645); test: Binding experiment for 5-HT transporter, [3H]Paroxetine; conditions: 5HT transporter-transfected HEK cells, [3H]Paroxetine binding; read-out: pIC50 5HT reuptake inhibition (converted)
T1 construct: host or cells: HEK cells
Protocol: (§1) The interaction of the compounds of Formula (I) with dopamine-receptors, h5HT-transporter and h5HT1A receptor was assessed in in vitro radioligand binding experiments. In general, a low concentration of a radioligand with a high binding affinity for a particular receptor or transporter is incubated with a sample of a tissue preparation enriched in a particular receptor or transporter or with a preparation of cells expressing cloned human receptors in a buffered medium. During the incubation, the radioligand binds to the receptor or transporter. When equilibrium of binding is reached, the receptor bound radioactivity is separated from the non-bound radioactivity, and the receptor- or transporter-bound activity is counted The interaction of the test compounds with the receptor is assessed in competition binding experiments. Various concentrations of the test compound are added to the incubation mixture containing the receptor- or transporter preparation and the radioligand. The test compound in proportion to its binding affinity and its concentration inhibits binding of the radioligand.
Frozen human 5HT transporter-transfected HEK cells (Perkin Elmer, Brussels) were thawed and briefly homogenised using an Ultra-Turrax T25 homogeniser prior to dilution to an appropriate protein concentration optimised for specific and non-specific binding. [^3H]Paroxetine (NEN, specific activity 20 Ci/mmol) was diluted in Tris-HCl assay buffer containing NaCl and KCl (50 mM 120 mM and 5 mM, respectively; pH 7.4) at a concentration of 5 nmol/L. Prepared radioligand (25 μl) was then incubated (60 min, 25° C.) with membrane preparations (200 μl) and with 25 μl of either 10% DMSO control, Imipramine (10^−6 mol/L final concentration), or compound of interest Membrane-bound activity was detected by filtration through a Packard Filtermate harvester onto Unifilterplates pre-soaked in 0.1% PEI, washing with ice-cold assay buffer (3×4 ml). Filters were dried prior to addition of scintillation fluid and then counting in a Topcount scintillation counter. % Specific bound and competition binding curves were calculated using S-Plus software (Insightful).

Human 5HT1A receptor = target: T2, Human 5HT1A receptor (Homo sapiens, UniProt P08908); test: Binding experiment for 5-HT1A receptor, [3H]8OHDPAT; conditions: membranes of 5HT1A receptor-transfected L929 cells, read-out: pIC50 5HT1A (converted)
T2 construct: expressed in transfected cells; host or cells: L929 cells (stably transfected)
T2 sequence (P08908 1-422): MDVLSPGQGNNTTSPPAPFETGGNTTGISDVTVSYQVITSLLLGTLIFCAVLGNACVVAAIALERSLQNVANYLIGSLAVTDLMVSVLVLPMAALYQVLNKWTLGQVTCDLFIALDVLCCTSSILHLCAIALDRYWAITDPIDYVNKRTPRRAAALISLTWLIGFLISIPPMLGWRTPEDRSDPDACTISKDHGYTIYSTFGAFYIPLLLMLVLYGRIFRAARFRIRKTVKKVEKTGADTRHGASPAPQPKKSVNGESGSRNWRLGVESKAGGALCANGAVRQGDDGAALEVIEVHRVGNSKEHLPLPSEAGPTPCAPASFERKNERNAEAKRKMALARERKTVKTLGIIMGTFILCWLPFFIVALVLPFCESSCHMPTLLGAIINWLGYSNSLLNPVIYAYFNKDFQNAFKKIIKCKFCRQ
Protocol: as §1
Human 5HT1A receptor-transfected L929 cells were collected by scraping into ice-cold Tris-HCl buffer (50 mM, pH 7.4). The suspension was centrifuged (23 500×g, 10 min, 4° C.) and pellets stored at −70° C. until required. They were then thawed and briefly homogenised using an Ultra-Turrax T25 homogeniser prior to dilution to an appropriate protein concentration optimised for specific and non-specific binding. [^3H]8OHDPAT (NEN, specific activity 127 Ci/mmol) was diluted in Tris-HCl assay buffer containing CaCl2 (50 mM and 4 mM, respectively; pH 7.7) at a concentration of 5 nmol/L. Prepared radioligand (50 μl) was then incubated (30 min, 37° C.) with membrane preparations from L929 cells stably-transfected with the h5HT1A gene construct (400 μl) and with 50 μl of either the 10% DMSO control, spiroxatrine (10^−6 mol/L final concentration), or compound of interest. Membrane-bound activity was detected by filtration through a Packard Filtermate harvester onto Unifaltemplates, washing with ice-cold Tris-HCI buffer (3×4 ml), followed by drying. Scintillation fluid was added and membranes were counted in a Topcount scintillation counter. % Specific bound and competition binding curves were calculated using S-Plus software (Insightful).

T1 sequence (P31645 whole entry): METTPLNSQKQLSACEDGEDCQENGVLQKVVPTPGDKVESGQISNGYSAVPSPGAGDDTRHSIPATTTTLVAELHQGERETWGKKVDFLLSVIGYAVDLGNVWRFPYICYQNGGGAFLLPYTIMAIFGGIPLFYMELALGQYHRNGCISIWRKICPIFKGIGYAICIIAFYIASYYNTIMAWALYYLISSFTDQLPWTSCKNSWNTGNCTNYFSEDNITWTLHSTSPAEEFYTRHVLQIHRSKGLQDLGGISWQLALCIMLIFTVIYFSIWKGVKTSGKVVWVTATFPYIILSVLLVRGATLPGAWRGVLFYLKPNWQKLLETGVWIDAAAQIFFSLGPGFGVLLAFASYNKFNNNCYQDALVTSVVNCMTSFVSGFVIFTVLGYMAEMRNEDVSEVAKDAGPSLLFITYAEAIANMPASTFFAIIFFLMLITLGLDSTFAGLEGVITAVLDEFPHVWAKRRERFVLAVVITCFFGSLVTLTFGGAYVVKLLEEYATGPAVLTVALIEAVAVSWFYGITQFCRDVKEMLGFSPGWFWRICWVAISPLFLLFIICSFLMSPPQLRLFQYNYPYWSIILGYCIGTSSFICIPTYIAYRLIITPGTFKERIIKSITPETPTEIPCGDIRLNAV

SMILES: Fc1ccc2[nH]cc(C3=CCN(CC4Oc5cccnc5O4)CC3)c2c1 (centres unmarked) [Compound 7]
- IC50 (human 5HT transporter): > 1000 nM
- IC50 (Human 5HT1A receptor): 398 nM

Reference: patent US20070066608A1, “Novel indole derivatives with an improved antipsychotic activity” (priority 2003, published 2007)
